Data set [1] is described as follows: Therapeutic index, ratio of TC50 for human CEM-SS cells to EC50 for HIV1 RF infected in human CEM-SS cells. Particulars: read-out: TI. The data set is classed as cell-based.
The test system of data set [2] is Human immunodeficiency virus 2. Description: Antiviral activity against HIV2 assessed as inhibition of viral replication treated at time points after viral entry into host cells. The data set is classed as functional, organism-based.
A short description of data set [3]: Therapeutic index, ratio of TC50 for human CEM-SS cells to EC50 for HIV2 ROD infected in human CEM-SS cells. As to conditions: for selectivity ratio: CEM-SS cells, read-out: TI; for TI: cem-ss. The class given is cell-based.
The test system of data set [4] is Human immunodeficiency virus 1. Description: Antiviral activity against HIV1 infected in human CEM-SS cells assessed as inhibition of viral replication and virus-induced cytopathic effect by dose-response curve analysis. The data set is classed as functional. Particulars: Human immunodeficiency virus 1, CEM-SS. In general terms: Cytopathic effects are the visible damage that an infection or toxin causes in cultured cells.

Data set [5] deals with Human immunodeficiency virus 2. Description: Inhibition of HIV2 reverse transcriptase.
Data set [6] relates to Human immunodeficiency virus 2. Briefly: Antiviral activity against HIV2 ROD infected in human CEM-SS cells assessed as inhibition of virus-induced cytopathic effect by XTT assay. The class given is functional, organism-based, ISOLATE ROD. As to conditions: for pEC50: Human immunodeficiency virus 2, ISOLATE ROD, CEM-SS, read-out: EC50; for EC50: cem-ss.
Data set [7] concerns Human immunodeficiency virus 2. Description: Inhibition of HIV2 reverse transcriptase assessed as 32P-labeled GMP incorporation into nascent DNA strand at highest concentration.
A short description of data set [8]: Therapeutic index, ratio of TC50 human HeLa cells expressing CD4-LTR to EC50 for HIV1 entry inhibition in human HeLa cells expressing CD4-LTR. The class given is cell-based. Particulars: read-out: TI.
Data set [9] concerns Human immunodeficiency virus 1. Briefly: Antiviral activity against HIV1 infected in human HeLa cells expressing CD4-LTR assessed as inhibition of viral entry-related beta galactosidase expression treated for 2 hrs followed by drug wash out measured after 48 hrs by MAGI assay. As to conditions: Human immunodeficiency virus 1, HeLa. The data set is classed as functional, organism-based.

A short description of data set [10]: Cytotoxicity against human HeLa cells expressing CD4-LTR by XTT assay. Particulars: read-out: TC50 (the source's name). The data set is classed as cell-based.
Data set [11] has as its target Human immunodeficiency virus type 1 reverse transcriptase (Human immunodeficiency virus 1, UniProt Q72547). Description: Inhibition of wild type HIV1 reverse transcriptase assessed as 32P-labeled GMP incorporation into nascent DNA strand.
Data set [12] can be described thus: Cytotoxicity against human CEM-SS cells by XTT assay. The class given is cell-based. Particulars: read-out: TC50 (the source's name). (Formazan colour is commonly taken as a measure of viable cells.)
Data set [13] relates to Human immunodeficiency virus 1. Briefly: Antiviral activity against HIV1 RF infected in human CEM-SS cells assessed as inhibition of virus-induced cytopathic effect by XTT assay. The class given is functional, organism-based. As to conditions: Human immunodeficiency virus 1, RF.
For data set [14], the system named is Human immunodeficiency virus 2. Description: Antiviral activity against HIV2 assessed as inhibition of viral single round replication at early time point. The data set is classed as functional, organism-based.
For data set [15], the target named is Human immunodeficiency virus type 1 reverse transcriptase (Human immunodeficiency virus 1, UniProt Q72547, K103N). Briefly: Inhibition of HIV1 reverse transcriptase K103N mutant assessed as 32P-labeled GMP incorporation into nascent DNA strand.

Each structure is given as a SMILES string. pEC50, pIC50: −log10 of the molar value. Active and inactive are the calls of the source.

The EC99 is the concentration needed for an effect of 99%. The pEC50 is the EC50 on a negative log10 scale, so that one unit is a factor of ten. A word on the pIC50: it is the negative decadic logarithm of the IC50, by convention in mol/L. Take `Cc1cc(C)cc(Sc2c(C(C)C)c(=O)[nH]c(=O)n2CCC2C=CCC2)c1` (stereo not given): the selectivity ratio in data set [1] amounted to 1850; in [3], 5.4; in data set [8], 3650. Further, the outcome in [2], in data set [5] and in data set [7] was inactive. Also, the EC99 in data set [4] was 1 µM. Besides, the results for the pEC50 in data set [6], in data set [9] and in data set [13] were 5.32, 8.05 and 7.68, respectively. For the same molecule, the CC50 was determined as 31900 nM in data set [10] and 25800 nM in data set [12]. The pIC50 in [11] was 6.61; in data set [15], below 3.59. In addition, the outcome in data set [14] was Active.

As to `Cc1cc(C)cc(Sc2c(C(C)C)c(=O)[nH]c(=O)n2CC2CCC2)c1`, the selectivity ratio in [1] worked out at 9290; in [3] it was 3.9; in data set [8], 37. Besides, the result in [2], in data set [5] and in data set [7] was inactive. Besides, in [4], the EC99 is 1 µM. Further, the values for the pEC50 in data set [6], in data set [9] and in data set [13] were 5.80, 6.55 and 9.80, respectively. The CC50 in data set [10] stood at 10400 nM; in data set [12] it was 6100 nM. In addition, the pIC50 is 7.70 in [11] and 3.74 in [15]. Also, the outcome in data set [14] was Active.

As for `CCc1c(C(=O)c2cc(C)cc(C)c2)n(CCC2CC=CC2)c(=O)[nH]c1=O`, the selectivity ratio in data set [1] was determined as 5660; in data set [3], 8.8; in data set [8] it was 36. Besides, the result in data set [2], in data set [5] and in [7] was inactive. The EC99 in data set [4] was found to be 1 µM. For the same molecule, the pEC50 in [6] is 5.82; in data set [9], 5.90; in data set [13], 7.89. The CC50 in data set [10] turned out to be 45000 nM; in data set [12], 13400 nM. The pIC50 in [11] was 7.74; in data set [15], 5.72. Also, in data set [14], the outcome was Active.

In the case of `Cc1cc(C)cc(Sc2c(C(C)C)c(=O)[nH]c(=O)n2CC2CCCC2)c1`, the results for the selectivity ratio in data set [1] and in [8] were 1260 and 39, respectively. The result in data set [2], in data set [5] and in data set [7] was inactive. In [3], the TI entry is “Not Active”. The EC99 in data set [4] was found to be 1 µM. Also, the EC50 result in [6] is given as “Not Active”. Besides, the pEC50 in data set [9] is 6.57; in data set [13], 7.96. Besides, the results for the CC50 in data set [10] and in data set [12] were 10600 nM and 7000 nM, respectively. The pIC50 in data set [11] was 6.89; in [15], below 3.57. Moreover, in [14], the outcome was Active.

Regarding `CCc1c(Sc2cc(C)cc(C)c2)n(CC2CCCC2)c(=O)[nH]c1=O`, the values for the selectivity ratio in data set [1], in data set [3] and in data set [8] were 3980, 70.4 and 1590, respectively. The result in [2], in data set [5] and in [7] was inactive. In addition, the EC99 in data set [4] was 1 µM. In addition, the pEC50 in data set [6] was 5.49; in [9], 6.85; in [13] it was 7.25. The CC50 in data set [10] and in data set [12] was 222000 nM each time. Besides, the pIC50 in data set [11] was 6.90; in data set [15] it was 4.98. Besides, the result in [14] was Active.

Consider `Cc1cc(C)cc(C(=O)c2c(C(C)C)c(=O)[nH]c(=O)n2CCC2CCCC2)c1`, for which the results for the selectivity ratio in data set [1] and in data set [8] were 1180 and 1460, respectively. In addition, the outcome in data set [2], in data set [5] and in data set [7] was inactive. The TI result in data set [3] is “Not Active”. For the same molecule, the EC99 in [4] stood at 1 µM. For the same molecule, in data set [6], the EC50 entry was “Not Active”. For the same molecule, the values for the pEC50 in data set [9] and in data set [13] were 7.85 and 7.70, respectively. In addition, the CC50 in [10] stood at 20600 nM; in [12], 17300 nM. Further, the figures for the pIC50 in data set [11] and in data set [15] were 7.19 and 5.59, respectively. Moreover, in data set [14], the result was Active.

As for `Cc1cc(C)cc(C(=O)c2c(C(C)C)c(=O)[nH]c(=O)n2CCC2CC=CC2)c1`, the selectivity ratio in data set [1] was 2390; in data set [3] it was 23; in [8], 30. Further, the outcome in data set [2], in data set [5] and in data set [7] was inactive. Also, the EC99 in [4] came to 1 µM. For the same molecule, the values for the pEC50 in [6], in data set [9] and in data set [13] were 6.22, 6.09 and 7.82, respectively. In addition, the CC50 in data set [10] was 24800 nM; in data set [12], 13900 nM. Also, the pIC50 in data set [11] was 7.96; in [15], 5.77. The outcome in data set [14] was Active.

On to `CC(C)c1c(Sc2ccccc2)n(CC2CC=CC2)c(=O)[nH]c1=O`, for which the values for the selectivity ratio in data set [1] and in data set [8] were 1300 and 22, respectively. Besides, the outcome in data set [2], in data set [5] and in [7] was inactive. Also, the TI entry in [3] is “Not Active”. For the same molecule, the EC99 in data set [4] is 1 µM. Further, the EC50 entry in [6] was “Not Active”. The pEC50 in [9] is 5.92; in data set [13], 7.55. Further, the CC50 in data set [10] came to 25800 nM; in data set [12] it was 15500 nM. Moreover, the pIC50 in data set [11] is 6.61; in [15] it was below 3.53. For the same molecule, the result in [14] was Active.

On to `Cc1cc(C)cc(C(=O)c2cc(=O)[nH]c(=O)n2CC2CC=CC2)c1`, for which the selectivity ratio in data set [1] was found to be 40; in [3], 2.8; in data set [8], 124. Besides, the outcome in data set [2], in [5] and in [7] was inactive. Moreover, the EC99 in data set [4] amounted to 1 µM. Further, the negative logarithm of the EC50 (pEC50) in data set [6] is 4.51; in [9], 6.15; in data set [13] it was 5.67. The CC50 in data set [10] and in [12] was 87300 nM each time. Moreover, the pIC50 in [11] is 3.92; in [15], below 3.51. Also, the outcome in [14] was Active.

As to `Cc1cc(C)cc(C(=O)c2c(C(C)C)c(=O)[nH]c(=O)n2CCC2=CCCC2)c1`, the selectivity ratio in data set [1] was 750; in data set [8], 1040. The result in data set [2], in [5] and in data set [7] was inactive. Moreover, the TI result in data set [3] is recorded as “Not Active”. Further, the EC99 in data set [4] came out at 1 µM. Also, in [6], the EC50 result is on record as “Not Active”. Further, the pEC50 is 7.52 in data set [9] and 7.28 in data set [13]. Besides, the CC50 in data set [10] stood at 29400 nM; in [12], 19200 nM. Besides, the pIC50 in [11] is 6.65; in data set [15] it was 3.64. Moreover, the outcome in [14] was Active.

Consider `Cc1cc(C)cc(Sc2c(C(C)C)c(=O)[nH]c(=O)n2CC2CC2)c1`, for which the selectivity ratio in data set [1] came out at 37600; in data set [3], 16.9; in data set [8], 1180. Besides, the result in data set [2], in data set [5] and in data set [7] was inactive. Also, the EC99 in data set [4] was 1 µM. The pEC50 in data set [6] was 6.30; in data set [9] it was 8.05; in [13] it was 9.52. Also, the values for the CC50 in [10] and in [12] were 10300 nM and 7800 nM, respectively. Moreover, the results for the pIC50 in [11] and in data set [15] were 8.52 and 5.83, respectively. For the same molecule, the result in [14] was Active.

Consider `Cc1cc(C)cc(Oc2c(C(C)C)c(=O)[nH]c(=O)n2CCC2C=CCC2)c1` (stereo not given), for which the selectivity ratio in [1] stood at 3560; in [3] it was 21.5; in data set [8] it was 1650. The outcome in [2], in [5] and in [7] was inactive. Also, the concentration for an effect of 99% (EC99) in data set [4] worked out at 1 µM. Further, the pEC50 is 6.40 in data set [6], 8.05 in data set [9] and 8.23 in [13]. Also, the CC50 in data set [10] stood at 14200 nM; in [12], 7600 nM. In addition, the pIC50 in [11] is 7.57; in data set [15] it was 5.82. For the same molecule, the outcome in [14] was Active.
